These results are taken from patent US12679827B2, “Pyrimidine compounds and their pharmaceutical uses” (National Health Research Institutes, priority 2020, dated 2026).

Some results are limits rather than exact numbers.

The conditions of assay [1]: background statement, WO 2014/190207A1; cited from earlier work.
For assay [2], the target named is T1, human Aurora A (amino acids 123-401) (Homo sapiens, UniProt O14965).
T1 construct: human Aurora A (amino acids 123-401) was expressed in Sf9 insect cells; GST; made in house; host or cells: Sf9 insect cells
T1 sequence (O14965 123-401): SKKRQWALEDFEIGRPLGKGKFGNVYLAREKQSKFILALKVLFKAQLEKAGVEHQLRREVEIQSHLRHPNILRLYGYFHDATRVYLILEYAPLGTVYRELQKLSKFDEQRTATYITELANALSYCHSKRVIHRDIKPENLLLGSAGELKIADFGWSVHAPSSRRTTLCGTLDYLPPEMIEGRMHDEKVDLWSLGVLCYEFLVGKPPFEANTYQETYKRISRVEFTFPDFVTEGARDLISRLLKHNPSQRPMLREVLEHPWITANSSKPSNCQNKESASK
Description: Kinase-Glo Luminescent Kinase assay, in vitro inhibition of Aurora A kinase activity. Type of assay: biochemical. Particulars: recombinant GST-tagged Aurora A, 5.0 μM ATP, 37° C., 120 minutes. The procedure: Recombinant glutathione S-transferase (GST)-tagged N-terminal truncated human Aurora A (amino acids 123-401) was expressed in Sf9 insect cells and then purified by glutathione affinity chromatography to afford recombinant Aurora A. Recombinant Aurora A (150 ng) was reacted with each test compound (100 nM) in 50 μL of 50 mM Tris-HCl pH 7.4, 10 mM NaCl, 10 mM MgCl2, 0.01% bovine serum albumin, 5.0 μM ATP, 1 mM dithiothreitol, 15 μM tetra(-LRRASLG) peptide at 37° C. for 120 minutes. Then, to the reaction was added 50 μL of Kinase-Glo Plus Reagent. The resulting mixture was incubated at 25° C. for 20 minutes. A 70 μL aliquot of the mixture was transferred to a black microliter plate. Luminescence was measured using a Wallac Vector 1420 multilabel counter (PerkinElmer, USA).

For assay [3], the system named is NCI-H69. The experiment in a line: Small-cell-lung cancer cell proliferation inhibition assay (PrestoBlue), NCI-H69. The assay is classed as cell-based. Particulars: Homo sapiens, MYCN amplified SCLC cells, 72 hours. As for the experimental part: (§1) Small cell lung cancer cells NCI-H82 (ATCC HTB-175, cMYC amplified), NCI-H446 (ATCC® HTB-171, cMYC amplified), and NCI-H69 (ATCC® HTB-119, MYCN amplified) were seeded at the density of 5000-10000 cells per well in 96-well plates. After 24 hours, the cancer cells were treated with each compound at various concentrations (0-10 μM) and then incubated for another 72 hours. IC50 values were computed based on duplicated 8-point titration.

In assay [4] the test system is NCI-H446. The experiment in a line: Small-cell-lung cancer cell proliferation inhibition assay (PrestoBlue), NCI-H446. Particulars: Homo sapiens, cMYC amplified SCLC cells, 72 hours. Type of assay: cell-based. As for the experimental part: as §1
Assay [5] concerns NCI-H82. The experiment in a line: Small-cell-lung cancer cell proliferation inhibition assay (PrestoBlue), NCI-H82. Type of assay: cell-based. The following applies: Homo sapiens, cMYC amplified SCLC cells, 72 hours. As for the experimental part: as §1
The subject of assay [6] is NCI-H446 xenografted tumor. The experiment in a line: Inhibition of xenografted tumor growth, NCI-H446-xenografted tumorigenicity mouse model. The following applies: 100 mg/kg orally; for tumor regression: NCI-H446 xenograft. The assay is classed as in vivo, mice. The procedure:
The efficacies of two compounds of Formula (I), i.e., compound 71 and compound 122, in inhibiting tumor growth were determined using a NCI-H446-xenografted tumorigenicity mouse model as below.
Male athymic nu/nu nude mice (BioLASCO, Taiwan) at age 6 wk were housed in sterile cages maintained under 12-h light/dark cycles with controlled temperature and humidity. The mice were inoculated s.c. with 1×10^6 NCI-H446 cells (ATCC® HTB-171) resuspended in saline mixed with 50% Metrigel Matrix (Corning, USA). The sizes of the xenografted tumors were measured by a digital caliper (GMC-190; Goldsun Electronics Co.) and calculated using the algorithm: tumor volume (mm^3)=length×(width)^2/2. Body weight and tumor size were measured at least twice a week.

Assay [7] has as its system cMYC. The experiment in a line: In vivo cMYC protein level reduction, NCI-H446 xenograft mouse model, Western blot. On the set-up: species or system mice. The following applies: one oral dosage of 100 mg/kg; tumors harvested 2-24 hours; FIG. 3. The procedure: (§2) The efficacy of a compound of Formula (I), i.e., compound 71, in reducing the cMYC protein level and in inducing cell apoptosis was assessed using an NCI-H446 xenograft tumorigenicity mouse model as follows.
(§3) Male athymic nu/nu nude mice (BioLASCO. Taiwan) at 6-week age were housed in sterile cages maintained under 12-h light/dark cycles with controlled temperature and humidity. Mice were inoculated s.c. with 1×10^6 NCI-H446 cells resuspended in saline mixed with 50% Metrigel Matrix (Corning, USA). The sizes of the xenografted tumors were measured by a digital caliper (GMC-190; Goldsun Electronics Co.) and calculated using the algorithm: tumor volume (mm^3)=length×(width)^2/2. Body weight and tumor size were measured at least twice a week. When the xenografted NCI-H446 tumor reached a size ≥500 mm^3, the xenografted tumor-bearing nude mice were oral (PO) administered with compound 71 at one dosage of 100 mg/kg. Tumors were harvested at 2 hours, 4 hours, 8 hours, and 24 hours after the administration. Tissue lysates of the tumors were subjected for Western blot analysis. The primary antibodies used were cMYC (Cell Signaling, Cat No. 5605S), PARP-1 (Abcam, ab32378), and β-ACTIN (Sigma-Aldrich, A1978).

The test system of assay [8] is cleaved PARP-1 (cPARP-1). Description: In vivo cell apoptosis induction (cleaved PARP-1), NCI-H446 xenograft mouse model, Western blot. The arrangement: species or system mice. Particulars: one oral dosage of 100 mg/kg; 24 hours after administration; FIG. 3. As for the experimental part:
as §2, §3

Turning to `O=C(Nc1ccc(Nc2nccc(Nc3cc(C4CCCC4)[nH]n3)n2)cc1)Nc1cccc(C(F)(F)F)c1` [CD532], the in vivo efficacy entry in assay [1] is “weak”.

As to `Cc1cc(Nc2cc(N3CCC(N(C)C)CC3)nc(N[C@H]3CCN(C(=O)c4cccc(Cl)c4F)C3)n2)n[nH]1` [Compound 21], the IC50 in assay [2] is below 100 nM; in assay [3] it was below 1000 nM; in assay [4] it was below 1000 nM; in assay [5], below 1000 nM.

For the molecule `CCC(=O)n1nc(C)cc1Nc1cc(N2CCN(CC)CC2)nc(N[C@H]2CCN(C(=O)c3ccc(Cl)cc3F)C2)n1` [Compound 71], the IC50 in assay [3], in assay [4] and in assay [5] was below 1000 nM in each case. Moreover, the “tumor size after treatment” value is “smaller than 50 mm^3” in assay [6] (5-on-2-off, from about 250 mm^3, in 10 days, FIG. 2A) and “smaller than 50 mm^3” in assay [6] (5-on-2-off, from larger than 750 mm^3, in 14 days, FIG. 2C). The tumor regression entry in assay [6] is “more than 80%”. The “xenografted tumors with reduced cMYC protein level” value in assay [7] is “more than 50%”. Besides, in assay [8], the “xenografted tumors with increased amounts of cleaved PARP-1 (cell apoptosis)” value is “more than 80%”.

For the molecule `Cc1cc(Nc2cc(N3CCN(C)CC3)nc(NC3CCN(C(=O)c4cccc(Cl)c4F)CC3)n2)n[nH]1` [Compound 90], the IC50 in assay [2] is below 100 nM; in assay [3] it was below 1000 nM; in assay [4], below 1000 nM; in assay [5] it was below 1000 nM.

Regarding `Cc1cc(Nc2cc(N3CCC(N(C)C)CC3)nc(NC3CCN(C(=O)c4cccc(Cl)c4F)CC3)n2)n[nH]1` [Compound 92], the IC50 was below 100 nM in assay [2], below 1000 nM in assay [3], below 1000 nM in assay [4] and below 1000 nM in assay [5].

In the case of `CC(=O)N1CCN(c2cc(Nc3cc(C)[nH]n3)nc(NC3CCN(C(=O)c4cccc(Cl)c4F)CC3)n2)CC1` [Compound 93], the IC50 in assay [2] is below 100 nM; in assay [3] it was below 1000 nM; in assay [4], below 1000 nM; in assay [5], below 1000 nM.

Regarding `Cc1cc(Nc2cc(N3CC[C@@H](N(C)C)C3)nc(NC3CCN(C(=O)c4cccc(Cl)c4F)CC3)n2)n[nH]1` [Compound 94], the IC50 in assay [2] was below 100 nM; in assay [3], below 1000 nM; in assay [4] it was below 1000 nM; in assay [5], below 1000 nM.

Regarding `Cc1cc(Nc2cc(N3CC[C@H](N(C)C)C3)nc(NC3CCN(C(=O)c4cccc(Cl)c4F)CC3)n2)n[nH]1` [Compound 96], the IC50 in assay [2] is below 100 nM; in assay [3], below 1000 nM; in assay [4], below 1000 nM; in assay [5] it was below 1000 nM.

Consider `COC[C@H]1CCCN1c1cc(Nc2cc(C)[nH]n2)nc(NC2CCN(C(=O)c3cccc(Cl)c3F)CC2)n1` [Compound 97], for which the IC50 was below 100 nM in assay [2], below 1000 nM in assay [3], below 1000 nM in assay [4] and below 1000 nM in assay [5].

On to `Cc1cc(Nc2cc(N3C[C@@H](C)N(C)[C@@H](C)C3)nc(NC3CCN(C(=O)c4cccc(Cl)c4F)CC3)n2)n[nH]1` [Compound 100], for which the IC50 in assay [2] was below 100 nM; in assay [3] it was below 1000 nM; in assay [4] it was below 1000 nM; in assay [5], below 1000 nM.

With `Cc1cc(Nc2cc(N3C[C@@H](C)N[C@@H](C)C3)nc(NC3CCN(C(=O)c4cccc(Cl)c4F)CC3)n2)n[nH]1` [Compound 102], the IC50 in assay [2] was below 100 nM; in assay [3], below 1000 nM; in assay [4], below 1000 nM; in assay [5], below 1000 nM.

With `Cc1cc(Nc2cc(N3CCN(C4COC4)CC3)nc(NC3CCN(C(=O)c4cccc(Cl)c4F)CC3)n2)n[nH]1` [Compound 103], the IC50 in assay [2] was below 100 nM; in assay [3] it was below 1000 nM; in assay [4], below 1000 nM; in assay [5] it was below 1000 nM.

For the molecule `Cc1cc(Nc2cc(N3CCN(CC(F)(F)F)CC3)nc(NC3CCN(C(=O)c4cccc(Cl)c4F)CC3)n2)n[nH]1` [Compound 106], the IC50 in assay [2] was below 100 nM; in assay [3], below 1000 nM; in assay [4] it was below 1000 nM; in assay [5], below 1000 nM.

Turning to `Cc1cc(Nc2cc(N3C[C@H](C)NC[C@H]3C)nc(NC3CCN(C(=O)c4cccc(Cl)c4F)CC3)n2)n[nH]1` [Compound 107], the IC50 is below 100 nM in assay [2], below 1000 nM in assay [3], below 1000 nM in assay [4] and below 1000 nM in assay [5].

Consider `CCC(=O)n1nc(C)cc1Nc1cc(N2CCN(CC)CC2)nc(NC2CCN(C(=O)c3cccc(Cl)c3F)CC2)n1` [Compound 122], for which the IC50 in assay [2] is below 100 nM; in assay [3], below 1000 nM; in assay [4] it was below 1000 nM; in assay [5] it was below 1000 nM. For the same molecule, the tumor regression entry in assay [6] is on record as “more than 80%”. Besides, the “tumor size after treatment” value in assay [6] (from about 250 mm^3, FIG. 2B) is reported as “smaller than 50 mm^3”.

`CCC(=O)n1nc(Nc2cc(N3CCN(CC)CC3)nc(NC3CCN(C(=O)c4cccc(Cl)c4F)CC3)n2)cc1C` [Compound 123]: the IC50 in assay [2] was below 100 nM; in assay [3], below 1000 nM; in assay [4], below 1000 nM; in assay [5] it was below 1000 nM.

As for `COc1cc(Nc2ncc3c(n2)-c2ccc(Cl)cc2C(c2c(F)cccc2OC)=NC3)ccc1C(=O)O` [MCLN8237, reference compound], the “tumor size 6 weeks after the treatment stopped” value in assay [6] (FIG. 2A) is on record as above 700 mm^3.
